In patent publication US10323018B2 (Millennium Pharmaceuticals, Inc., priority 2015, dated 2019) one finds inhibition, IC50 and viability data, which are given here for 11 molecules.

Bounds are passed on as bounds.

The target of one assay is hNAMPT protein (Homo sapiens (Human), UniProt P43490). Nature of the assay: NAMPT enzyme assay (TR-FRET/HTRF with BodiPY ligand). It is filed as binding. As to conditions: for inhibition at 1 µM: NAMPT inhibition at compound concentration 1 μM, read-out: Percent Inhibition; for IC50: NAMPT inhibition, IC50 range class. The source says: As discussed above, the invention provides compounds that are useful as inhibitors of the enzyme NAMPT. The NAMPT inhibition of a compound of the invention can be measured using a variety of methods known in the art. For example, the ability of a compound of the invention to inhibit NAMPT enzyme activity can be measured using a homogeneous time resolved fluorescence (HTRF) assay using hNAMPT protein and anti 6His-Tb in buffer treated with a compound of the invention (or control e.g., DMSO) and BodiPY ligand. The TR-FRET signal can be measured using a high throughput microplate reader (e.g., Pherastar). Excitation can be carried out at 320 nm. The percent inhibition value at a single concentration of compound of the invention can be calculated relative to a control treated sample. A concentration response curve can be generated for each compound of the invention and the curve fitted to generate an IC50 value. […] To measure the inhibition of NAMPT activity hNAMPT protein stock and anti 6His-Tb (Cisbio; Cat. No. […]TLB) is diluted to 3× final concentration with assay buffer (50 mM Tris-HCl (pH 7.5), 1 mM DTT, 100 mM NaCl, 10 mM MgCl2, 0.005% Tween 20). To this solution is added a test compound or vehicle control (DMSO) and BodiPY ligand (structure below). The plate is shaken for 1-2 min sealed and incubated for 1 h at rt in the dark. The TR-FRET signal is measured using BMG Pherastar (Lanthascreen protocol on BMG Pherastar). Excitation was carried out at 320 nm, and the ratio of emission of BodiPY (520 nm) to terbium (486 nm) was determined. Concentration response curves are generated by calculating the excitation increase in test compound-treated samples relative to DMSO-treated controls. For the assay method described above, test compound percent inhibition values at a single concentration are calculated relative to control (DMSO) treated samples. Compound concentration response curves are fitted to generate IC50 values from those curves. One skilled in the art will appreciate that these values generated either as percentage inhibition at a single concentration or IC50 values are subject to experimental variation.

A further assay concerns PC3 cells. Nature of the assay: PC3 growth inhibition (Cell-titer glo, 72 hours). It is filed as cell-based. The following applies: Homo sapiens, PC-3, 72 h, read-out: Percent Viability, PC3 cells, compound concentration 1.667 μM, 72 hours. The method, then:
The invention also provides compounds that inhibit cell growth. The ability of a compound of the invention to inhibit the growth of cells can be measured using a variety of methods known in the art. For example, the ability of a compound of the invention to inhibit the growth of PC3 cells can be measured. PC3 cells can be plated and incubated overnight under CO2. For each measurement, a compound of the invention (or vehicle e.g., DMSO) can be diluted with AIM serum free medium and added to the cell plate. The cell plate can then be incubated for 72 h under CO2. Cell-titer glo solution can be added and the plates can be incubated protected from light and the amount of luminescences can be measured. Concentration response curves can be generated by calculating the luminescence increase in test compound treated samples relative to DMSO-treated controls. Percentage remaining viability values at a single concentration can be measured. Growth inhibition (GI50) or cell viability (LD50) values can be determined from thoses curves. In one embodiment, compounds of the invention have a percent viability in PC3 line @ 1.667 uM of <1%. In one embodiment, compounds of the invention have a percent viability in PC3 line @ 1.667 uM of <2%. In one embodiment, compounds of the invention have a percent viability in PC3 line @ 1.667 uM of <3%. In one embodiment, compounds of the invention have a percent viability in PC3 line @ 1.667 uM of <4%. In one embodiment, compounds of the invention have a percent viability in PC3 line @ 1.667 uM of <5%. In one embodiment, compounds of the invention have a percent viability in PC3 line @ 1.667 uM of <10%. In one embodiment, compounds of the invention have a percent viability in PC3 line @ 1.667 uM of <50%.
To measure PC3 growth inhibition, PC3 cells that were maintained in RPMI1640 growth medium (Life Technologies; Cat. No. 11875) at 37° C. under 5% CO2 are trypsinized and diluted at a density of 8×10^4 cells/ml, 25 ul per well of cells and plated in 384-well black tissue culture plate. The cells are incubated overnight at 37° C. under 5% CO2. For each measurement, a test compound or vehicle DMSO control is diluted with AIM serum free medium and added to the cell plate. The cell plate is incubated for 72 hours at 37° C. under 5% CO2. 25 μl Cell-titer glo solution (Promega; Cat. No. G8462) is added and the cell plates are incubated for 10 minutes protected from light. The luminescence is measured. Concentration response curves are generated by calculating the luminescence increase in test compound-treated samples relative to DMSO-treated controls. Percentage remaining viability values at a single concentration, growth inhibition (GI50) or cell viability (LD50) values are determined from those curves. One skilled in the art will appreciate that these values are subject to experimental variation.

hNAMPT protein, sequence (P43490 whole entry): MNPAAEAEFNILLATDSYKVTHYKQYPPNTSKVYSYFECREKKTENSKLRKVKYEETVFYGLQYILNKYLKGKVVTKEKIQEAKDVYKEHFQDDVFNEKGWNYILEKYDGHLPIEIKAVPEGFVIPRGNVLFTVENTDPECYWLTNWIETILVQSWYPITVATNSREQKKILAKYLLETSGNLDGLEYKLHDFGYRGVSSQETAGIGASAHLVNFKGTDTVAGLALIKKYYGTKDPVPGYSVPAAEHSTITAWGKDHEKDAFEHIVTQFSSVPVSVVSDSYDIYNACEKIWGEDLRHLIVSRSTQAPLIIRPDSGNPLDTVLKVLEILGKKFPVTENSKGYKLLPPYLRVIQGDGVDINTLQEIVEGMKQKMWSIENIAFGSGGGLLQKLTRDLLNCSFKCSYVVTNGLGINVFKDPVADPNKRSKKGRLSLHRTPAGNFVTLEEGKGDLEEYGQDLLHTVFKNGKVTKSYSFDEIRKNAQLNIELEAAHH

For the molecule `CCOc1cc(-c2ccc(F)cc2)nc2cc(C(=O)NCc3nc4cnccc4[nH]3)ccc12` [Compound I-14, 4-ethoxy-2-(4-fluorophenyl)-N-(1H-imidazo[4,5-c]pyridin-2-ylmethyl)quinoline-7-carboxamide], at hNAMPT protein, the inhibition at 1 µM was over 99% and the concentration for half-maximal inhibition (IC50) is under 10 nM. Also, the viability at 1.667 µM in the assay with PC3 cells came to 1%.
As for `CCOc1cc(-c2ccc(F)cc2)nc2cc(C(=O)NCCCc3ncc[nH]3)ccc12` [Compound I-15, 4-ethoxy-2-(4-fluorophenyl)-N-[3-(1H-imidazol-2-yl)propyl]quinoline-7-carboxamide], at hNAMPT protein, the inhibition at 1 µM was over 99% and the IC50 was under 10 nM. Also, in the assay on PC3 cells, the viability at 1.667 µM was 2%.
For `CCCc1nc(-c2ccc(F)cc2)nc2cc(C(=O)NCCCc3ncc[nH]3)ccc12` [Compound I-16, 2-(4-fluorophenyl)-N-[3-(1H-imidazol-2-yl)propyl]-4-propylquinazoline-7-carboxamide], in that order: 100%, under 10 nM and 0%.
For `CC(C)Oc1cc(-c2ccc(F)cc2)nc2cc(C(=O)NCCCc3ncc[nH]3)ccc12` [Compound I-17, 2-(4-fluorophenyl)-N-[3-(1H-imidazol-2-yl)propyl]-4-isopropoxyquinoline-7-carboxamide], in that order: 99%, under 10 nM and 0%.
For the molecule `CCOc1nc(-c2ccc(F)cc2)nc2cc(C(=O)NCC(C)Cc3ncc[nH]3)ccc12` (stereo not drawn) [Compound I-18, 4-ethoxy-2-(4-fluorophenyl)-N-[3-(1H-imidazol-2-yl)-2-methylpropyl]quinazoline-7-carboxamide], on hNAMPT protein, the inhibition at 1 µM worked out at 99% and the IC50 lay in the range of 10 to 50 nM. Besides, in the assay on PC3 cells, the viability at 1.667 µM was 0%.
For the molecule `CCOc1nc(-c2ccc(F)cc2)nc2cc(C(=O)NCCCc3cncnc3)ccc12` [Compound I-19, 4-ethoxy-2-(4-fluorophenyl)-N-[3-(pyrimidin-5-yl)propyl]quinazoline-7-carboxamide], on hNAMPT protein, the inhibition at 1 µM was over 99% and the 50% inhibitory concentration (IC50) is under 10 nM. Also, in the assay with PC3 cells, the viability at 1.667 µM was found to be 1%.
For `CCOCc1nc(-c2ccc(Cl)cc2)nc2cc(C(=O)NCCCc3ncc[nH]3)ccc12` [Compound I-20, 2-(4-chlorophenyl)-4-(ethoxymethyl)-N-[3-(1H-imidazol-2-yl)propyl]quinazoline-7-carboxamide], on hNAMPT protein, the inhibition at 1 µM was 98% and the half-maximal inhibitory concentration (IC50) lay within 10 to 50 nM. Further, the viability at 1.667 µM in the assay with PC3 cells came out at 1%.
For `CC(C)Cc1nc(-c2ccc(Cl)cc2)nc2cc(C(=O)NCCCc3ncc[nH]3)ccc12` [Compound I-21, 2-(4-chlorophenyl)-N-[3-(1H-imidazol-2-yl)propyl]-4-isobutylquinazoline-7-carboxamide], in that order: 99%, 10 to 50 nM and 0%.
For `CCc1nc(-c2ccc(Cl)s2)nc2cc(C(=O)NCCCc3ncc[nH]3)ccc12` [Compound I-22, 2-(5-chloro-2-thienyl)-4-ethyl-N-[3-(1H-imidazol-2-yl)propyl]quinazoline-7-carboxamide], in that order: over 99%, 10 to 50 nM and 1%.
For `CC(C)Cc1nc(-c2ccc(Cl)s2)nc2cc(C(=O)NCCCc3ncc[nH]3)ccc12` [Compound I-23, 2-(5-chloro-2-thienyl)-N-[3-(1H-imidazol-2-yl)propyl]-4-isobutylquinazoline-7-carboxamide], in that order: over 99%, 10 to 50 nM and 1%.
In the case of `CCCc1nc(-c2ccc(Cl)s2)nc2cc(C(=O)NCCCc3ncc[nH]3)ccc12` [Compound I-24, 2-(5-chloro-2-thienyl)-N-[3-(1H-imidazol-2-yl)propyl]-4-propylquinazoline-7-carboxamide], on hNAMPT protein, the inhibition at 1 µM was over 99% and the concentration for half-maximal inhibition (IC50) is under 10 nM. For the same molecule, in the assay with PC3 cells, the viability at 1.667 µM is 1%.
